# Measured values: PMC7170889, “Synthesis and evaluation of designed PKC modulators for enhanced cancer immunotherapy” (Nature Communications, 2020)
# Assays:
# [1] = target: T1, PKCδ-GFP fusion protein (Homo sapiens, UniProt Q05655); assay: PKCδ-GFP translocation assay in living CHO-k1 cells (confocal microscopy); format: cell-based, Chinese hamster; settings: for minimum effective concentration required to induce translocation of PKC-GFP to the membrane: tested at 200 and 1000 nM
# T1 construct: expressed in transfected cells; host or cells: CHO-k1 (Chinese hamster ovary, ATCC)
# T1 sequence (Q05655 whole entry, the tested form may be a part): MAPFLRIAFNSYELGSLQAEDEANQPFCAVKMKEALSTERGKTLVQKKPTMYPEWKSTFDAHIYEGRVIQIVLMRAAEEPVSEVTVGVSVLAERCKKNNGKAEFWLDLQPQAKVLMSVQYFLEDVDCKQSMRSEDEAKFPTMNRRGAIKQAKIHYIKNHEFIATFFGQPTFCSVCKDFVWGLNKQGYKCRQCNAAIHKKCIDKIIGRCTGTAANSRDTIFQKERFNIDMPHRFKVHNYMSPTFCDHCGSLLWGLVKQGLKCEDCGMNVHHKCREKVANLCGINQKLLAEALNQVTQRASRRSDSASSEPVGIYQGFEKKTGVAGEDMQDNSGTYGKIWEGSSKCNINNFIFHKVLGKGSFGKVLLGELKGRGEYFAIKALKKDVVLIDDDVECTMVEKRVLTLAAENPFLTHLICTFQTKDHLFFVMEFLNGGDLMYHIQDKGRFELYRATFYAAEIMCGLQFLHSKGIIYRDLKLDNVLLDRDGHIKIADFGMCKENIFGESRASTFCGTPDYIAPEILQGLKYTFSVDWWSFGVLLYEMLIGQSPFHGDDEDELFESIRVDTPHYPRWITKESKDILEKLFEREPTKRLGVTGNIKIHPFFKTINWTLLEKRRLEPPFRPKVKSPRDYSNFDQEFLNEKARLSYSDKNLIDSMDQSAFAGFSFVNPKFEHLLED
# Method: (§1) With a panel of compounds bearing diverse functionality at C13, we began to explore how these modifications affect PKC binding and biological function. Because an obvious prerequisite for PKC pathway involvement is binding to PKC, compounds were initially evaluated for PKC affinity in a cell-free competitive binding assay with tritiated phorbol dibutyrate ([^3H]-PDBu). Assays were performed with representative members of both the conventional (PKCα) and novel (PKCδ) PKC families. Subsequently, compounds were assayed for PKC isoform translocation in real time in living cells using an optical assay. Translocation to the plasma membrane is the hallmark of PKC activation[18],[57],[60] and therefore monitoring the subcellular localization of a PKCδ-GFP fusion protein via confocal microscopy offers a convenient method for determining whether a compound enters a cell and engages its PKC isoform target. Finally and of clinical significance, we also determined the effect of compounds on CD22 surface expression in vitro in NALM6 cells, an ALL cell line previously studied in connection with CD22-targeted CAR T cell therapy, and two additional lymphoma cell lines[11],[31],[65].
# Scale bar represents 25 μm. Experiments performed in n = 3 biological replicates. b–d Cytosolic fluorescence normalized to t = 0 (time immediately prior to addition of compound to media) and plotted against time. Error bars excluded for clarity (data presented as the mean of n = 3 biological replicates). Individual curves with error bars included in Supplementary Information.
# PKCδ-GFP Translocation Assay Protocol
# Chinese hamster ovary factor K1 (CHO-k1, ATCC) cells were cultured in F-12 Kaighn’s media (Hyclone, 10% fetal bovine serum, 1% penicillin/streptomycin added, reffered to as F-12 +/+ below) at 37 ° C in an incubator (5% CO2). Cell cultures were maintained by splitting cells 1:3 when they reached ~75-100% confluence (every 2-3 days) as follows:
# (Gibco) was used to remove the cells from the culture flask (T75, Falcon). 1 mL of the cell suspension was then added to 9 mL of fresh F-12 +/+ and the sample was sub-cultured until reaching confluence (~2-3 days).
# Cells were counted using a Countess II Automated Cell Counter (Fisher). The cell suspension was diluted to 240,000 cells/mL with fresh F-12 +/+ and 2.5 mL of this diluted stock was added to one well in a 6-well plate. The cells were then cultured for 24 hours.
# Cells were transfected with Lipofectamine 2000 reagent (Invitrogen) or DA 13:11 at a 10:1 charge […]
# F-12 +/+ was aspirated and cells were washed with F-12 -/-. 2 mL of fresh F-12 -/- was then added to each well, taking care not to disturb adherent cells. For each well of CHO-k1 cells, 12.5 µL Lipofectamine 2000 reagent (Invitrogen) was added to 250 µL Opti-MEM reduced serum media (Invitrogen) in a polypropylene tube and incubated for 20 minutes at RT. Meanwhile, for each well, 4 µg of PKCδ-GFP pDNA and 250 µL Opti-MEM reduced serum media was added to a separate polypropylene tube. 250 µL of the Lipofectamine 2000 suspension was added to the DNA suspension and the solution incubated for 30 minutes at RT. 500 µL of the Lipofectamine/DNA suspension was added to the respective wells of the 6-well plate. The cells were then incubated at 37 ° C (5% CO2) for ~24 hrs.
# F-12 +/+ was aspirated and cells were washed with F-12 -/-. 2.4 mL of fresh F-12 -/- was then added to each well, taking care not to disturb adherent cells. A 4 µg aliquot of PKCδ-GFP pDNA was added to PBS (pH 5.5, final volume 100 µL). 5.6 µL of DA 13:11 (2 mM stock in DMSO) was then added to the DNA solution, and the mixture was gently mixed (by flicking) for 20 seconds, at which point it was added directly to the respective wells of the 6-well plate.
# [2] = target: T2, PKCδ (Homo sapiens, UniProt Q05655); assay: PKC competitive binding assay with [3H]-phorbol dibutyrate (PKCδ); settings: cell-free, competition with [3H]-PDBu, PS vesicles
# T2 construct: purchased Invitrogen
# T2 sequence (Q05655 whole entry): as the sequence (Q05655 whole entry, the tested form may be a part) above
# Method: as §1
# (§2) PKC Binding Assay Protocol […]
# (§3) competition with 3H-phorbol-12,13-dibutyrate (3H-PDBu) as described below. This procedure entails a glass-fiber filtration method to determine bound radioligand.
# (§4) Preparation of PKC binding assay buffer
# (§5) To a 50 mL polypropylene tube was added Tris-HCl (pH 7.4, 1 M, 1 mL), KCl (1 M, 2 mL), CaCl2 (0.1 M, 30 μL), and bovine serum albumin (BSA, 40 mg, Sigma-Aldrich). This mixture was diluted to 20 mL with deionized H2O and mixed gently. The buffer was stored on ice until use. The final […]
# (§6) Supplementary Table1. PKC binding assay buffer composition.
# (§7) Preparation of phosphatidylserine (PS) vesicles
# (§8) For every two assays, 3.5 mg phosphatidylserine (Avanti Polar Lipids, porcine, 25 mg/mL CHCl3 solution) was concentrated by removing chloroform under a stream of nitrogen followed by reduced pressure. The solid PS was suspended as vesicles in freshly prepared PKC binding assay buffer (3.5 mL) by sonicating six times for 30 sec, with a 30 sec rest between sonications (Branson Sonifier 250, power = 2, 50% duty cycle). The resulting milky cloudy mixture (1 mg/mL) was stored […]
# (§9) Preparation of PKC isoform solution
# Assay PKC was prepared by dissolving a 4 μg aliquot of the indicated recombinant human PKC isoform (Invitrogen) into 11.6 mL of PKC binding assay buffer (this amount is sufficient for two assays). The diluted PKC was stored on ice for immediate use. […]
# μCi/mmol) was diluted 10-fold with DMSO. The resulting 500 nM stock solution was further diluted with DMSO to 30 nM.
# (§10) Preparation of analog compound dilutions
# (§11) Compound dilutions were prepared by serially diluting from a chosen "high" concentration by factors of 3 or 4. For each analog compound, seven concentrations were used to define the […]
# (§12) To a polypropylene tube was added 3.3 mL of 1 mg/mL PS vesicles solution, 11 mL of PKC isoform solution, and 1.1 mL of 30 nM 3H-PDBu solution were added. The resulting solution was vortexed to mix and stored on ice.
# (§13) PKC binding assay protocol
# (§14) - Glass-fiber filters (Whatman GF/B) were prepared by soaking them in a solution of aqueous polyethyleneimine (10% by vol, 18 mL) in deionized water (600 mL) for ≥1h.
# (§15) - 500 mL "rinsing buffer" of 20 mM Tris, pH 7.4 was cooled on ice for the duration of the incubation period and for the remainder of the assay.
# Triplicate data points were obtained for each analog concentration. For each data point, 280 μL of "Master Mix" Solution and 20 μL of analog compound at a specified concentration were added to a polypropylene tube. Non-specific 3H-PDBu binding was assessed in triplicate by substitution […]
# μM). Maximal 3H-PDBu binding was assessed in triplicate by substitution of the analog compound with 20 μL DMSO. The solutions were vortexed to mix, incubated at 37 °C for 10 min, and […]
# [3] = tested on: PKC; assay: PKC competitive binding assay, isoform not specified; design: species or system human; settings: charged substituents at C13; Table 1 data
# Method: as §1, §2, §3, §4, §5, §6, §7, §8, §9
# (§16) Assay PKC was prepared by dissolving a 4 μg aliquot of the indicated recombinant human PKC isoform (Invitrogen) into 11.6 mL of PKC binding assay buffer (this amount is sufficient for two assays). The diluted PKC was stored on ice for immediate use.
# (§17) Preparation of 3H-PDBu solution
# (§18) 3H-PDBu (American Radiolabeled Chemicals, Inc.; 1 mCi/mL acetone solution; specific activity: […]) was diluted 10-fold with DMSO. The resulting 500 nM stock solution was further diluted with DMSO to 30 nM.
# as §10, §11, §12, §13
# - Glass-fiber filters (Whatman GF/B) were prepared by soaking them in a solution of […]
# [4] = target: T3, PKCα (Homo sapiens, UniProt P17252); assay: PKC competitive binding assay with [3H]-phorbol dibutyrate (PKCα); settings: cell-free, competition with [3H]-PDBu, PS vesicles; read-out: Ki PKCα
# T3 construct: purchased Invitrogen
# Method: as §1, §2, §3, §4, §5, §6, §7, §8, §9, §16, §17, §18, §10, §11, §12, §13, §14, §15
# Triplicate data points were obtained for each analog concentration. For each data point, 280 μL of "Master Mix" Solution and 20 μL of analog compound at a specified concentration were added to a polypropylene tube. Non-specific 3H-PDBu binding was assessed in triplicate by substitution
# [5] = tested on: CD22 surface expression in NALM6 cells; assay: CD22 surface expression in NALM6 cells (flow cytometry); format: cell-based, human; settings: NALM6 cells at 1 nM relative to DMSO control; 24 h incubation, washout, 24 h sub-culture; n = 3
# Method: CD22 Surface Expression Protocol – NALM6 Cells […]
# unless otherwise noted below) at 37 ° C in an incubator (5% CO2). Cell cultures were maintained […]
# Cell suspension from a confluent T75 flask (Fisher) was transferred to a 15 mL falcon tube and centrifuged at 1100 rpm for 7 minutes. The supernatant was aspirated, and the cell pellet was […]
# Cells were counted using a Countess II Automated Cell
# 199 µL of this stock was added to 24 wells (enough for triplicate measurements for 8 different experimental conditions) in a 96-well plate. Dosing was […]
# each experiment. 1 µL of DMSO or the appropriate stock solution of compound in DMSO was added to each well. Cells were incubated for 24 hours, at which point the cell suspensions were transferred to 1.5 mL Eppendorf tubes and diluted with 1.0 mL of PBS (Hyclone, without Ca2+ or Mg2+). Samples were centrifuged at 2000 rpm for 5 min at RT. The supernatant was aspirated, […]
# Cells were sub-cultured between 2 […]
# surface expression was assayed by flow cytometry.
# Cells from one well were counted using a Countess II Automated Cell Counter (Fisher). ~200,000 – 300,000 cells from each well were added to 1.5 mL Eppendorf tubes containing PBS (final volume ~1.2 mL). The cell suspensions were centrifuged at 1500 rpm for 7 minutes at 4 °C. The supernatant was aspirated, and the cell pellet was resuspended in 99 µL of pre-chilled FACS […]
# buffer (0.5% w/v BSA in PBS). […]
# minutes. Samples were then diluted with an additional 1.0 mL of FACS buffer and centrifuged at 1500 rpm for 7 minutes at 4 °C. The supernatant was aspirated, the cell pellets were resuspended in 200 µL FACS buffer, and the resulting suspensions were transferred to FACS tubes (Fisher, […]
# Cells were stained with DAPI and CD22 surface expression was analyzed using the FACScan Analyzer at the Stanford Shared FACS Facility. Data analysis was performed using FlowJo and Microsoft Excel.
smiles,measurement,setting,value
CCCC=CC=CC(=O)OC1C(=CC(=O)OC)CC2CC(C(C)O)OC(=O)CC(O)CC3CC(OC(C)=O)C(C)(C)C(O)(CC4CC(OC(=O)CN(C)C)CC(C=CC(C)(C)C1(O)O2)O4)O3 (stereo not shown) [SUW212],Emax at 1 µM,"[1]; CHO-K1, 1000 nM compound, CHO-k1 cells, n = 3, read-out: % Translocation (maximum translocation of PKCδ-GFP to the plasma membrane)",50%
same,minimum effective concentration required to induce translocation of PKC-GFP to the membrane,[1]; CHO-k1 cells,1000 nM
same,sustained translocation of PKC,[1]; at up to 1000 nM,did not achieve sustained translocation of PKC
same,Ki,[2],24 nM
same,decrease in affinity to PKC,[3],20-100 fold
same,Ki,[4],40 nM
CCCC=CC=CC(=O)OC1C(=CC(=O)OC)CC2CC(C(C)O)OC(=O)CC(O)CC3CC(OC(C)=O)C(C)(C)C(O)(CC4CC(=CC(=O)OCc5ccccc5)CC(C=CC(C)(C)C1(O)O2)O4)O3 (stereo not shown) [SUW220],% Translocation (maximum translocation of PKCδ-GFP to the plasma membrane),"[1]; 1000 nM compound, CHO-k1 cells, n = 3",50%
same,minimum effective concentration required to induce translocation of PKC-GFP to the membrane,[1]; CHO-k1 cells,1000 nM
CCCCCCCC(=O)O[C@H]1/C(=C/C(=O)OC)C[C@H]2C[C@H]([C@@H](C)O)OC(=O)C[C@H](O)C[C@@H]3C[C@H](OC(C)=O)C(C)(C)[C@](O)(C[C@@H]4C[C@@H](C)C[C@H](/C=C/C(C)(C)[C@]1(O)O2)O4)O3 [SUW226],Emax at 0.2 µM,"[1]; CHO-K1, 200 nM compound, CHO-k1 cells, n = 3, read-out: % Translocation (maximum translocation of PKCδ-GFP to the plasma membrane)",75%
same,minimum effective concentration required to induce translocation of PKC-GFP to the membrane,[1]; CHO-k1 cells,200 nM
C=CCOC(=O)/C=C1\C[C@H]2C[C@]3(O)O[C@H](C[C@@H](O)CC(=O)O[C@@H]([C@@H](C)O)C[C@@H]4C/C(=C\C(=O)OC)[C@H](OC(=O)/C=C/C=C/CCC)[C@@](O)(O4)C(C)(C)/C=C/[C@@H](C1)O2)C[C@H](OC(C)=O)C3(C)C [SUW230],Fold increase CD22 expression,[5],1.62 fold
same,% Translocation (maximum translocation of PKCδ-GFP to the plasma membrane),"[1]; 200 nM compound, CHO-k1 cells, n = 3",65%
same,minimum effective concentration required to induce translocation of PKC-GFP to the membrane,[1]; CHO-k1 cells,200 nM
